The results in this text go back to patent US7417062B2, “Substituted arylamides” (ChemoCentryx, Inc., priority 2004, dated 2008).

For the experiment, the target named is T1, CCXCKR2 receptor (Homo sapiens, UniProt P25106).
T1 construct: host or cells: MCF-7 (endogenous) and/or MDA-MB-435S transfected with hRDC1 in pcDNA3.1(+)
T1 sequence (P25106 whole entry): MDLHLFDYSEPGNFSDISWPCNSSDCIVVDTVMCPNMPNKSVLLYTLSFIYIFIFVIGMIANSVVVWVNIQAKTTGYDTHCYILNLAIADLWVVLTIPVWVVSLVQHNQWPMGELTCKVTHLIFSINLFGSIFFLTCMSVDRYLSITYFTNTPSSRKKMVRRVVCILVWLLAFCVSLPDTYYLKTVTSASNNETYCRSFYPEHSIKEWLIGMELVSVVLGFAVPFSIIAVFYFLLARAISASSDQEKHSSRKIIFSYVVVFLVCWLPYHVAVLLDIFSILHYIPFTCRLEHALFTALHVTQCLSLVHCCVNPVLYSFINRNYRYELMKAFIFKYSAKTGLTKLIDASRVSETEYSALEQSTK
Kind of experiment: Displacement of 125I-labeled SDF-1 from the CCXCKR2 receptor (radioligand binding, determination of IC50 values). To be noted: MCF-7 and/or MDA-MB-435S cells expressing CCXCKR2; 125I SDF-1; 3 hr at 4° C.; read-out: Activity (ability to displace 125I SDF-1 from CCXCKR2). The protocol:
The ability of the compounds to displace the labeled chemokine from the CCXCKR2 receptor sites at multiple concentrations was then determined with the screening process.
Compounds that were deemed effective modulators were able to displace at least 50% of the SDF-1 from the CCXCKR2 receptor at concentrations at or below 10 micromolar (μM) and more preferably at concentrations at or below 2 micromolar. At present, especially preferred compounds can displace at least 50% of the SDF-1 from the CCXCKR2 receptor at concentrations at or below 500 nM. Exemplary compounds that met these criteria are reproduced in Table B below. All compounds were prepared as described in the Examples above, or by related methods substituting readily available starting materials.
Reagents and Cells. ^125I-labeled SDF-1 was purchased from Perkin-Elmer Life Sciences, Inc. (Boston, Mass.). The MCF-7 (adenocarcinoma; mammary gland) cell line was obtained from the American Type Culture Collection (Manassas, Va.) or and was cultured in DMEM (Mediatech, Herndon, Va.) supplemented with 10% fetal bovine serum (FBS) (HyClone Logan, Utah) and bovine insulin (0.01 mg/mL) (Sigma, St. Louis, Mo.) at 37° C. in a humidified incubator at a 5% CO2/air mixture. CCXCKR2 transfected MDA-MB-435S were produced as described below. MDA-MB-435S human breast cancer line, was purchased from ATCC, and cultured in DMEM/10% FBS medium. The complete coding sequence of the gene encoding CCXCKR2 (a.k.a.CXCR7, hRDC1), was isolated from MCF-7 cells using μMACs mRNA isolation kit (Miltenyi Biotec, Auburn, Calif.). DNA contamination was removed by DNase digestion via RNeasy columns (Qiagen, Inc., Valencia, Calif.) and cDNA was generated using GeneAmp RNA PCR Core Kit (Applied Biosystems, Foster City, Calif.). PCR of cDNA samples was performed using Taq PCR Master Mix kit (Qiagen, Inc.) and hRDC1 primers harboring 5′ and 3′ Not I sites (hRDC1F 5′-[…]-3′ (SEQ ID NO:1), hRDC1R 5′-[…]-3′ (SEQ ID NO:2)) Not I digested PCR product was ligated into Not I digested pcDNA3.1(+)(Invitrogen, Carlsbad, Calif.) and screened for orientation and sequence confirmed. Plasmid DNA was then isolated from overnight bacterial cultures by Maxiprep (Qiagen, Inc.). Plasmid DNA (10 μg) was added to MDA-MB-435s cells and cells were electroporated (0.22 kV, 960 uF) via Gene Pulser (Biorad laboratories, Hercules, Calif.). 48 hr post-electroporation, cells were transferred to selection medium (1000 ug/ml G418).
Binding Analysis. Target compounds were tested to determine their ability to bind with CCXCKR2 sites on MCF-7 and/or MDA-MB-435S cells. Efficiency-maximized radioligand binding using filtration protocols as described in Dairaghi D J, et al., HHV8-encoded vMIP-I selectively engages chemokine receptor CCR5. Agonist and antagonist profiles of viral chemokines., J. Biol. Chem. 1999 Jul. 30; 274(31): 21569-74 and Gosling J, et al., Cutting edge: identification of a novel chemokine receptor that binds dendritic cell-and T cell-active chemokines including ELC, SLC, and TECK., J. Immunol. 2000 Mar. 15; 164(6):2851-6 was used.
In these assays, MCF-7 and/or MDA-MB-435S cells were interrogated with the target compounds and the ability of these compounds to displace ^125I radiolabeled SDF-1 was assessed using the protocol described in Dairaghi and Gosling. The target compounds were added to the plate to the indicated concentration and were then incubated with cells followed by the addition of radiolabeled chemokine (^125I SDF-1) for 3 hr at 4° C. in the following binding medium (25 mM HEPES, 140 mM NaCl, 1 mM CaCl2, 5 mM MgCl2 and 0.2% bovine serum albumin, adjusted to pH 7.1). All assays were then incubated for 3 hrs at 4° C. with gentle agitation. Following incubation in all binding assays, reactions were aspirated onto PEI-treated GF/B glass filters (Packard) using a cell harvester (Packard) and washed twice (25 mM HEPES, 500 mM NaCl, 1 mM CaCl2, 5 mM MgCl2, adjusted to pH 7.1). […]
On to `COc1cc(C(=O)N(Cc2csc(-c3ccccc3)n2)C[C@@H]2CCCN2)cc2c1OC(C)(C)O2` [Example 55, 7-Methoxy-2,2-dimethyl-benzo [1,3]dioxole-5-carboxylic acid (2-phenyl-thiazol-4-ylmethyl)-pyrrolidin-2-ylmethyl-amide], for which the IC50 is less than 500 nM.
As to `COc1cc(C(=O)N(CCC2CCCN2C)CC2=C(Cl)c3cc(F)ccc3OC2)cc(OC)c1OC` (stereo not shown), the IC50 was less than 500 nM.
Take `COc1cc(C(=O)N(C[C@@H]2CCCN2)c2cccc(-c3ccccc3)c2)ccc1OC(F)F` [Example 31, N-Biphenyl-3-yl-4-difluoromethoxy-3-methoxy-(S)—N-pyrrolidin-2-ylmethyl-benzamide]: the IC50 was less than 500 nM.
In the case of `COc1ccc(C(=O)N(C[C@@H]2CCCN2CC2CC2)c2cccc(-c3cccnc3)c2)cc1OC` [Example 35, (S)—N-(1-Cyclopropylmethyl-pyrrolidin-2-ylmethyl)-3,4-dimethoxy-N-(3-pyridin-3-yl-phenyl)-benzamide] it was less than 2000 nM; in that of `COc1cc(C(=O)N(CCC2CCCN2C)Cc2ccc3c(c2)OCCO3)cc(OC)c1OC` (stereo not shown) [Example 9, N-(2,3-Dihydro-benzo[1,4]dioxin-6-ylmethyl)-3,4,5-trimethoxy-N-[2-(1-methyl-pyrrolidin-2-yl)-ethyl]-benzamide], less than 500 nM.
As to `COc1cc(C(=O)N(Cc2nc(-c3ccccc3)sc2Cl)C[C@@H]2C[C@@H]3CCCC[C@@H]3N2)cc2c1OC(C)(C)O2` [Example 79, 7-Methoxy-2,2-dimethyl-benzo[1,3]dioxole-5-carboxylic acid (5-chloro-2-phenyl-thiazol-4-ylmethyl)-[(2S,3aS,7 aS)-1-(octahydro-indol-2-yl)methyl]-amide], the IC50 was less than 500 nM.
For `COc1cc(C(=O)N(C[C@@H]2CCCN2CC2CC2)c2cccc(-c3ccccc3)c2)ccc1OC(F)F` [Example 32, N-Biphenyl-3-yl-(S)—N-(1-cyclopropylmethyl-pyrrolidin-2-ylmethyl)-4-difluoromethoxy-3-methoxy-benzamide], the IC50 was less than 500 nM.
To `COc1ccc(C(=O)N(Cc2cc3ccccc3s2)C[C@@H]2CCCN2)cc1OC` [Example 29, N-Benzo[b]thiophene-2-ylmethyl-3,4-dimethoxy-N—(S)-pyrrolidin-2-ylmethyl-benzamide] belongs less than 2000 nM; to `COc1ccc(C(=O)N(C[C@@H]2CCCN2CC2CCCCC2)c2cccc(-n3cccn3)c2)cc1OC` [Example 75, N-((S)-1-Cyclohexylmethyl-pyrrolidin-2-ylmethyl)-3,4-dimethoxy-N-(3-pyrazol-1-yl-phenyl)-benzamide], less than 10000 nM; to `COc1ccc(C(=O)N(C[C@@H]2CCCN2CC2CCCCC2)c2cccc(-c3csc(C)n3)c2)cc1OC`, less than 2000 nM.
Take `COc1cc(C(=O)N(CCC2CCCN2C)Cc2cnc3ccccc3c2)cc(OC)c1OC` (stereo not shown) [Example 10]: the IC50 is less than 10000 nM.
In the case of `COc1cc(C(=O)N(Cc2nc(-c3ccccn3)sc2Cl)C[C@@H]2CCCN2C2CCC2)cc2c1OC(C)(C)O2` it was less than 10000 nM; in that of `COc1cc(C(=O)N(Cc2ccc3ccccc3n2)C[C@@H]2C[C@@H]3CCCC[C@@H]3N2)cc2c1OC(C)(C)O2` [Example 70, 7-Methoxy-2,2-dimethyl-benzo[1,3]dioxole-5-carboxylic acid [(2S,3aS,7aS)-1-(octahydro-indol-2-yl)methyl]-quinolin-2-ylmethyl-amide], less than 500 nM.
On to `COc1cc(C(=O)N(Cc2ccc3ccccc3[n+]2[O-])C[C@@H]2CCCN2C2CCC2)cc2c1OC(C)(C)O2` [Example 69, 7-Methoxy-2,2-dimethyl-benzo[1,3]dioxole-5-carboxylic acid ((S)-1-cyclobutyl-pyrrolidin-2-ylmethyl)-(1-oxy-quinolin-2-ylmethyl)-amide], for which the IC50 is less than 10000 nM.
To `COc1cc(C(=O)N(CCC2CCCN2C)Cc2cc3ccccc3o2)cc(OC)c1OC` (stereo not shown) [Example 7, N-Benzofuran-2-ylmethyl-3,4,5-trimethoxy-N-[2-(1-methyl-pyrrolidin-2-yl)-ethyl]-benzamide] belongs less than 500 nM; to `COc1cc(C(=O)N(Cc2ccc3ccccc3c2)C[C@@H]2CCCN2C2CCC2)cc2c1OC(C)(C)O2` [Example 59, 7-Methoxy-2,2-dimethyl-benzo[1,3]dioxole-5-carboxylic acid ((S)-1-cyclobutyl-pyrrolidin-2-ylmethyl)-naphthalen-2-ylmethyl-amide], less than 500 nM; to `COc1cc(C(=O)N(CCC2CCCN2C)Cc2ccc3ccccc3c2)cc(OC)c1OC` (stereo not shown) [Example 5, 3,4,5-Trimethoxy-N-[2-(1-methyl-pyrrolidin-2-yl)-ethyl]-N-naphthalen-2ylmethyl-benzamide], less than 500 nM.
To `COc1cc(C(=O)N(CCCN2CCCCC2C)c2ccc3ccccc3c2)cc(OC)c1OC` (stereo not shown) [Example 20, 3,4,5-Trimethoxy-N-[3-(2-methyl-piperidin-1-yl)-propyl]-N-naphthalen-2-yl-benzamide] belongs less than 2000 nM; to `COc1ccc(C(=O)N(Cc2nc3ccccc3s2)C[C@@H]2CCCN2C(C)C)cc1OC` [Example 28, N-Benzothiazol-2-yl methyl-(S)—N-(1-isopropyl-pyrrolidin-2-ylmethyl)-3,4-dimethoxy-benzamide], less than 500 nM.
To `COc1cc(C(=O)N(Cc2nc(-c3ccccc3)cs2)C[C@@H]2CCCN2C2CCC2)cc2c1OC(C)(C)O2` [Example 50, 7-Methoxy-2,2-dimethyl-benzo[1,3]dioxole-5-carboxylic acid ((S)-1-cyclobutyl-pyrrolidin-2-ylmethyl)-(4-phenyl-thiazol-2-ylmethyl)-amide] belongs less than 500 nM; to `COc1cc(C(=O)N(CCCN2CCCCC2C)Cc2ccc3ccccc3c2)cc(OC)c1OC` (stereo not shown) [Example 18], less than 500 nM; to `COc1ccc(C(=O)N(C[C@@H]2CCCN2CC2CCCCC2)c2cccc(-c3ccccc3)c2)cc1OC` [Example 24, N-biphenyl-3-yl-(S)—N-(1-cyclohexylmethyl-pyrrolidin-2-ylmethyl)-3,4-dimethoxy-benzamide], less than 500 nM.
`COc1ccc(C(=O)N(C[C@@H]2CCCN2CC2CC2)c2cccc(-c3ccc(F)c(Cl)c3)c2)cc1OC` [Example 38, N-(3′-Chloro-4′-fluoro-biphenyl-3-yl)-(S)—N-(1-cyclopropylmethyl-pyrrolidin-2-ylmethyl)-3,4-dimethoxy-benzamide]: the IC50 is less than 10000 nM.
To `COCCOCCN1CCC[C@H]1CN(Cc1ccc2ccccc2n1)C(=O)c1cc(OC)c2c(c1)OC(C)(C)O2` [Example 47, 7-Methoxy-2,2-dimethyl-benzo[1,3]dioxole-5-carboxylic acid {(S)-1-[2-(2-methoxy-ethoxy)-ethyl]-pyrrolidin-2-ylmethyl}-quinolin-2-ylmethyl-amide] belongs less than 500 nM; to `COc1cc(C(=O)N(CCC2CCCN2C)Cc2cc3ccccc3n2C)cc(OC)c1OC` (stereo not shown), less than 500 nM.
